Experiment: in vivo
Design: species or system Sprague-Dawley male rats
Conditions: rat, plasma, iv, 11.4 mg/kg, intravenous penem 11.4 mg (titer)/Kg
Procedure: The blood was collected during the period of from 0.1 to 1.5 hours after the administration. The concentrations of the free acid of the penem in plasma samples were measured by high performance liquid chromatography (HPLC) to determine the area under the plasma concentration:time curve (AUC).

AUC at 1.5 h (cilastatin 0 (penem alone)): 7.17 µg·h/mL
AUC at 1.5 h (cilastatin 0.0717 mg/Kg oral): 6.86 µg·h/mL
AUC at 1.5 h (cilastatin 0.717 mg/Kg oral): 5.67 µg·h/mL
AUC at 1.5 h (cilastatin 7.17 mg/Kg oral): 6.74 µg·h/mL
Compound: C[C@@H](O)[C@H]1C(=O)N2C(C(=O)O)=C([C@H]3CCCO3)S[C@H]12 [sodium (1'R,2"R,5R,6S)-6-(1'-hydroxyethyl)-2-(2"-tetrahydrofuranyl)penem-3-carboxylate 2.5 hydrate]
